Measurements from patent publication US5403932A, “Phosphoramidates useful as antitumor agents” (Research Corporation Technologies, Inc., priority 1994, dated 1995).
Like-named read-outs stand apart in the source and are kept apart here.

Legend:
[1] = test system: HT29 human colon cancer cells; test: Aerobic and hypoxic selectivity against human colon cancer HT29 cells, colony formation; format: cell-based; conditions: 4 h
Method: HT29 human colon cancer cells were maintained in exponential growth in α-MEM medium supplemented with 10% fetal bovine serum and 25 mM HEPES buffer, and cultured at 37° C. and 3% CO2. For drug treatments, 1-2×10^6 cells in 10 ml of medium were transferred to glass reaction vials. For the hypoxic experiments, the medium was first gassed for 3 hr with 95% nitrogen/5% CO2 to achieve a partial pressure of oxygen <100 ppm. These cell suspensions were then treated with drug at different concentrations under either aerobic or hypoxic conditions for 4 hr in the reaction vials. The medium was removed, the cells were washed, and a colony formation assay was carried out as described above in Example 15. Colonies with […] 50 cells were counted 12-14 days after plating. The log of the surviving fraction was plotted against drug concentration, and from this plot the concentration required to reduce the colony number to 10% of control (LC90) was determined. The results of this test on representative compounds of the present invention are depicted in Table 4.

[2] = test system: L1210/O (cyclophosphamide sensitive) murine leukemia cells; test: Soft agar colony-forming assay, in vitro cytotoxicity against cyclophosphamide-sensitive L1210 murine leukemia; format: cell-based, mouse; conditions: 1 h at 37°, 99% cell kill
Method: (§1) The In Vitro cytotoxic activity of representative compounds under hypoxic and aerobic conditions were evaluated as follows.
(§2) A soft agar colony-forming assay according to the procedure of Chu and Fischer, Biochem. Pharmacol., 17, 753-767 (1968) was used and modified where necessary. Cultured mouse L1210 and P388 sensitive cells were purchased from EG&G Mason Research Institute, Tumor Bank, Worchester, Ma. Cultured cyclophosphamide resistant L1210 and P388 cells were obtained from Dr. Robert Struck of Southern Research Institute, Birmingham, Ala. Typically, the desired cells (2-3×10^6 cells/ml) in exponential growth and suspended in 6.5 ml of Fischer's medium (Gibco Lab., Grand Island, N.Y.) were divided into six groups (1 control and 5 treated groups) containing an equal number of cells in 1 ml. These cells were then treated with varying doses of drug diluted with media to give a total volume of 10 ml, and incubated for one hour at 37° C. The cells were washed three times with 3 ml of supplemented Fischer's medium (containing 10% horse serum) by centrifuge (800×g), removal of media by suction, and resuspension of the pellet in media (5 ml). A 1-ml portion was used to determine the cell count with a Coulter counter. From the remainder, a 5-ml suspension of cells was prepared at a density of 10^5 cells/ml, and between 10^2 and 10^5 cells were placed on soft agar and incubated at 37° C. Colonies were counted after 10 days. The log of the surviving fraction was plotted vs. drug concentration and from this plot the LC99 was obtained. (By definition, the LC99 value represents the concentration of drug necessary to effect a 99% cell kill.)

[3] = test system: P388/O (cyclophosphamide sensitive) murine leukemia cells; test: Soft agar colony-forming assay, in vitro cytotoxicity against cyclophosphamide-sensitive P388 murine leukemia; format: cell-based, mouse; conditions: 1 h at 37°, 99% cell kill
Method: as §1, §2

[4] = test system: L1210/CP (cyclophosphamide resistant) murine leukemia cells; test: Soft agar colony-forming assay, in vitro cytotoxicity against cyclophosphamide-resistant L1210 murine leukemia; format: cell-based, mouse; conditions: 1 h at 37°, 99% cell kill
Method: as §1
as §2, with “From the remainder, a 5-ml suspension of cells was prepared at a density of 10^5 cells/ml, and between 10^2 and 10^5 cells were placed on soft agar and incubated at 37° C.” left out, “The log of the surviving fraction was plotted vs. drug concentration and from this plot the LC99 was obtained. (By definition, the LC99 value represents the concentration of drug necessary to effect a 99% cell kill.)” left out

[5] = test system: P388/CP (cyclophosphamide resistant) murine leukemia cells; test: Soft agar colony-forming assay, in vitro cytotoxicity against cyclophosphamide-resistant P388 murine leukemia; format: cell-based, mouse; conditions: 1 h at 37°, 99% cell kill
Method: as §1
as §2, with “From the remainder, a 5-ml suspension of cells was prepared at a density of 10^5 cells/ml, and between 10^2 and 10^5 cells were placed on soft agar and incubated at 37° C.” left out, “The log of the surviving fraction was plotted vs. drug concentration and from this plot the LC99 was obtained. (By definition, the LC99 value represents the concentration of drug necessary to effect a 99% cell kill.)” left out

[6] = test system: KHT/iv cells (mouse KHT sarcoma); test: Hypoxic cell selectivity using KHT/iv cells, clonogenic assay; format: cell-based; conditions: 4 h at 37°; for LC99, Aerobic: aerobic (95:5 air:CO2); for LC99, Hypoxic: hypoxic (95:5 nitrogen:CO2)
Method: KHT/iv cells were adapted to cell culture from tile mouse KHT sarcoma by Dietmar Siemann, University of Rochester. Cells were maintained in Eagle's basal medium and 10% fetal calf serum for all experiments. Cells in exponential growth were trypsinized from monolayer cultures and separated from one another by agitation in a gas-tight syringe at a density of 1-2×10^7 cells/ml for 15 minutes at 37°. The cells were then resuspended in HEPES-buffered Eagle's medium contained in stirred gas-tight vials at a final density of 2×10^7 cells/ml; before cells or drugs were added, the vials were pre-equilibrated with humidified gas having tile composition 95:5 air:CO2 for aerobic treatment or 95:5 nitrogen:CO2 from hypoxic treatment. Oxygen tension in the hypoxic medium was approximately 100 ppm after tile equilibration period. Drug was dissolved a volume of ethanol that would give a final ethanol concentration of 1% in the medium; this concentration of ethanol had no effect on the plating efficiency of control cell preparations. Cells were incubated with drug under aerobic or hypoxic conditions at 37° for 4 hours. The cells were then removed from the vials, washed with drug-free medium, counted, and plated for cell survival using a standard clonogenic assay. Cell surviving fraction was plotted vs. drug concentration, and the LC99 values were obtained from the least squares equation.

[7] = test system: B16 melanoma cells; test: Cytotoxicity against B16 melanoma cells, colony formation; format: cell-based; conditions: B16 mouse melanoma, 2 h treatment; read-out: Drug Concentration required to kill 90% of Clonogenic Tumor Cells In Vitro (LC90), B/16
Method: B16 melanoma cells in exponential growth (2-3×10^6 cells in 10 ml of serum-free MEM medium) were treated with drug for 2 hr. The cells were separated, washed, and resuspended in MEM medium supplemented with 10% fetal bovine serum. The cells were plated in 60-mm culture dishes at a density of 50-50,000 cells/plate (depending upon the drug concentration used) and then incubated for 8 days in a CO2 incubator at 37°. The colonies were fixed and stained with 0.5% crystal violet in ethanol and counted. The log of the surviving fraction was plotted against drug concentration, and from this plot the concentration required to reduce the colony number to 10% of control (LC90) was determined.

[8] = Table 4, aerobic, read-out: Drug Concentration required to kill 90% of Clonogenic Tumor Cells In Vitro (LC90), HT29 Aerobic
[9] = Table 4, hypoxic (95% nitrogen/5% CO2), read-out: Drug Concentration required to kill 90% of Clonogenic Tumor Cells In Vitro (LC90), HT29 Hypoxic
[10] = Table 3, aerobic, read-out: Drug Concentration required to kill 90% of Clonogenic Tumor Cells In Vitro (LC90), HT29 Aerobic
[11] = Table 3, hypoxic (95% nitrogen/5% CO2), read-out: Drug Concentration required to kill 90% of Clonogenic Tumor Cells In Vitro (LC90), HT29 Hypoxic

CC(OP(=O)(N(CCCl)CCCl)N(CCCl)CCCl)c1ccc([N+](=O)[O-])cc1 (centres unmarked) was tested, and the IC90 [1, 8] was > 500 µM and the IC90 [1, 9] was 45 µM.

CCOC(=O)CC(OP(N)(=O)N(CCCl)CCCl)c1cc(CN(C)C)cc2cc([N+](=O)[O-])cnc12 (centres unmarked) gave an IC90 [1, 8] of 700 µM and an IC90 [1, 9] of 95 µM.

Molecule COC(=O)CC(OP(N)(=O)N(CCCl)CCCl)c1ccccc1[N+](=O)[O-] (centres unmarked) [2-NO2 Ph, methyl 3-(2-nitrophenyl)-3-(N,N-bis(2-chloroethyl)phosphorodiamido)propionate] has an LC99 [2] of 172 and an LC99 [3] of 134.

Work on COC(=O)CC(OP(N)(=O)N(CCCl)CCCl)c1ccc([N+](=O)[O-])cc1 (centres unmarked) [4-NO2 Ph, methyl 3-(4-nitrophenyl)-3-(N,N-bis-(2-chloroethyl)phosphorodiamido) propionate] yielded an LC99 [4] of 152, an LC99 [5] of 77 and an LC99 [2] of 138. It also gave an LC99 [3] of 82.

For NP(=O)(OCc1ccccc1[N+](=O)[O-])N(CCCl)CCCl (centres unmarked) [Compound 2-nitro], the “LC99, Aerobic” value [6] was 700 and the “LC99, Hypoxic” value [6] was 230.

With NP(=O)(OCc1ccc([N+](=O)[O-])cc1)N(CCCl)CCCl (centres unmarked) [Compound 4-nitro] the “LC99, Aerobic” value [6] was 320 and the “LC99, Hypoxic” value [6] was 120.

For CCOC(=O)CC(OP(=O)(N(CCCl)CCCl)N(CCCl)CCCl)c1ccc([N+](=O)[O-])cc1 (centres unmarked) [Compound 12, O-(1-(4-nitrophenyl)-2-carbethoxyethyl)-N,N,N',N'-tetrakis(2-chloroethyl)phosphoramide], the IC90 [7] was > 100 µM, the IC90 [1, 10] was 80 µM and the IC90 [1, 11] was 12 µM.

In the case of CN(C)CCOC(=O)CC(OP(=O)(N(CCCl)CCCl)N(CCCl)CCCl)c1ccc([N+](=O)[O-])cc1 (centres unmarked) [Compound 13, O-(1-(4-nitrophenyl)-2-(2-N,N-dimethylaminoethoxycarbonyl)ethyl)-N,N,N'N'-tetrakis-(2-chloroethyl)phosphoramide], the IC90 [7] is reported as < 2 µM, the IC90 [1, 10] is reported as 60 µM and the IC90 [1, 11] is reported as 35 µM.

With CN(C)CCOC(=O)CC(OP(=O)(N(CCCl)CCCl)N(CCCl)CCCl)c1ccc([N+](=O)[O-])s1 (centres unmarked) [Compound 14, O-(1-(5-nitro-2-thiophene)-2-(2-N,N-dimethylaminoethoxycarbonyl)ethyl)-N,N,N'N'-tetrakis-(2-chloroethyl)-phosphoramide] the IC90 [7] was 2.8 µM, the IC90 [1, 10] was 7.5 µM and the IC90 [1, 11] was 3 µM.

In the case of CCOC(=O)CC(OP(=O)(N(CCCl)CCCl)N(CCCl)CCCl)c1ccc([N+](=O)[O-])s1 (centres unmarked) [Compound 15, O-(1-(5-nitro-2-thiophene)-2-carbethoxyethyl)-N,N,N'N'-tetrakis(2-chloroethyl)phosphoramide], the IC90 [7] is reported as 3 µM.

Work on CCOC(=O)CC(OP(=O)(N(CCCl)CCCl)N(CCCl)CCCl)c1ccc([N+](=O)[O-])c(C)n1 (centres unmarked) [Compound 16, O-(1(6-methyl-5-nitro-2-pyridyl)-2-carbethoxyethyl)-N,N,N'N'-tetrakis(2-chloroethyl)phosphoramide] yielded an IC90 [7] of 150 µM, an IC90 [1, 10] of 110 µM and an IC90 [1, 11] of 25 µM.

With CCOC(=O)CC(OP(=O)(N(CCCl)CCCl)N(CCCl)CCCl)c1cc([N+](=O)[O-])ccn1 (centres unmarked) [Compound 17, O-(1-(4-nitro-2-pyridyl)-2-carbethoxyethyl)-N,N,N',N'-tetrakis(2-Chloroethyl)phosphoramide] the IC90 [7] was 50 µM, the IC90 [1, 10] was 80 µM and the IC90 [1, 11] was 35 µM.

COC(=O)CC(OP(N)(=O)N(CCCl)CCCl)c1ccccc1 (centres unmarked) [Ph, reference compound] gave an LC99 [2] of 350 and an LC99 [3] of 300.
